Measured values from patent US9566351B2, “Molecular containers and methods of making and using same” (University of Maryland, College Park, priority 2010, dated 2017).
“And” between values parts separate entries of the source, which are not always exact repeats. Equal entries are not always repeated. Where two headings read alike, the source gives them in different places. One block for each compound: values may come before it.

Tests used:
[1] = drug with Motor1; 20 mM sodium phosphate buffer (pH=7.4); phase diagram
[2] = guest with Motor1; 20 mM sodium phosphate, pH = 7.4; direct UV/Vis titration (dyes) or indicator displacement
[3] = Phase-solubility of pharmaceutical agents with Motor2 (1H NMR); conditions: drug solubilized with Motor2; 20 mM sodium phosphate buffer (pH=7.4); phase diagram
HepG2 [4] = conditions: human, 48 h, 1 mM
HEK293 [5] = conditions: human, 48 h, 1 mM
HEK293 [6] = conditions: human, 48 h, 1 mM; remark: listed apart in the source
hERG = molecular target: T1, hERG (Homo sapiens, UniProt Q12809); conditions: transfected HEK-293 cells; HP-β-CD up to 4.2 mg/mL; cited from earlier work
T1 construct: host or cells: transfected HEK-293 cells

[7] = Motor2 toward drug; 1:1 inclusion complex; Ka=Slope/[S0(1−Slope)]
Hela = assay: In vitro bioactivity of Paclitaxel complexed with Motor1, Hela; assay type: cell-based; conditions: Paclitaxel 0.6 mM complexed, Paclitaxel 0.002 mM alone, Motor1 5 mM alone
MCF-7 = assay: In vitro bioactivity of Paclitaxel complexed with Motor1, MCF-7; assay type: cell-based; conditions: Paclitaxel 0.6 mM complexed, Paclitaxel 0.002 mM alone, Motor1 5 mM alone
[8] = Motor1 toward drug; 1:1 inclusion complex; Ka=Slope/[S0(1−Slope)]
[9] = Pharmacokinetic study of Motor1.ABZ, IP route (plasma, HPLC); conditions: for plasma concentration: IP
[10] = Pharmacokinetic study of Motor1.ABZ, IV route (plasma, HPLC); conditions: for plasma concentration: IV
TA98 strain = conditions: Salmonella typhimurium
[11] = mouse, in vivo
[12] = mouse, in vivo, iv, 3.2 mg/kg
[13] = clinical evaluation; cited from earlier work
[14] = aqueous solution; cited from earlier work
TA1537 strain = assay: Ames test, strain TA1537
HepG2 [15] = assay: AK (adenylate kinase) release cytotoxicity assay, HepG2; assay type: cell-based, human; conditions: 1 mM, untreated population 60%
TA100 [16] = assay: Ames test, strain TA100; conditions: −S9
[17] = tested on: S. typhimurium strain TA1535; assay: Ames test, strain TA1535; conditions: −S9
[18] = tested on: S. typhimurium strain TA1535; conditions: Salmonella typhimurium, 10 μg/plate
TA100 [19] = conditions: Salmonella typhimurium, 10 μg/plate
[20] = IV Route, Motor1.ABZ (681 and 3.2 mg/kg)

T1 sequence (Q12809 whole entry): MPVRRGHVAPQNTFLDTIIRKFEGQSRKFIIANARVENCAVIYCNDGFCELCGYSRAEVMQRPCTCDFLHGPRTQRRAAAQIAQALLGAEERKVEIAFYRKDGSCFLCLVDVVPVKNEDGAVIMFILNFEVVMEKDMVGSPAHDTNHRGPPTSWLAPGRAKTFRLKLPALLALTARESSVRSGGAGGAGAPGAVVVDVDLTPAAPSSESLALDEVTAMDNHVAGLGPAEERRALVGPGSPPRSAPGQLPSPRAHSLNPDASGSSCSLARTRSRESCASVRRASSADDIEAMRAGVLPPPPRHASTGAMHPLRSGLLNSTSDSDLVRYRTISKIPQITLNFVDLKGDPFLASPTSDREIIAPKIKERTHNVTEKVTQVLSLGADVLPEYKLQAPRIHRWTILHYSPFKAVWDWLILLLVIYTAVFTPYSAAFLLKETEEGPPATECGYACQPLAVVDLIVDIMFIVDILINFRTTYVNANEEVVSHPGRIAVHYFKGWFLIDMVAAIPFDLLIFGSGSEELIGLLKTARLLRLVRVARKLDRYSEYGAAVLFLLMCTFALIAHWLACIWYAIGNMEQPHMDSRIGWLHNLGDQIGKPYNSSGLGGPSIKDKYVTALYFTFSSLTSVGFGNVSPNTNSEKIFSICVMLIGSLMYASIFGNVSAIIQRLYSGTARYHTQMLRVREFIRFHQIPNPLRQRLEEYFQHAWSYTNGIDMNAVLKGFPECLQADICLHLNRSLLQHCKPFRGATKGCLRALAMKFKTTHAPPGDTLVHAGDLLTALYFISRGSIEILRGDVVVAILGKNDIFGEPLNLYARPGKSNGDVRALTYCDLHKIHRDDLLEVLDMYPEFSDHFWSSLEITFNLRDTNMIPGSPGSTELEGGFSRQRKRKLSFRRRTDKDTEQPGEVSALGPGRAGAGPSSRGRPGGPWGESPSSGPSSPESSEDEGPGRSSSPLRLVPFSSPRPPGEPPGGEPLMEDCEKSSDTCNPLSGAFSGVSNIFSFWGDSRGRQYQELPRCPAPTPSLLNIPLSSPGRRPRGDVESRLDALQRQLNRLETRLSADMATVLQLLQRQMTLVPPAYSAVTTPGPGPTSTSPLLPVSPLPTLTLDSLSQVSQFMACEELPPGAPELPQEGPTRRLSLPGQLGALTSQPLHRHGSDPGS

Compound: N[C@@H](Cc1ccc(N(CCCl)CCCl)cc1)C(=O)O [Melphalan]
- Solubility enhancement [1]: 655 fold

Compound: NCCCCN [butane-1,4-diamine]
- Ka [2]: 1.2 ± 0.1 × 10^5

Compound: CC[C@@]1(O)C(=O)OCc2c1cc1n(c2=O)Cc2cc3ccccc3nc2-1 [S-camptothecin]
- Solubility enhancement [3]: 580 fold

Compound: CC[C@H]1OC(=O)[C@H](C)[C@@H](O[C@H]2C[C@@](C)(OC)[C@@H](O)[C@H](C)O2)[C@H](C)[C@@H](O[C@@H]2O[C@H](C)C[C@H](N(C)C)[C@H]2O)[C@](C)(O)C[C@@H](C)C(=O)[C@H](C)[C@@H](O)[C@]1(C)O [Erythromycin]
- cell viability (MTS) (HepG2 [4]): 36%
- cell death (AK) (HEK293 [5]): 25%
- cell viability (MTS) (HEK293 [6]): 47%

Compound: hydroxypropyl-β-CD [HP-β-CD]
- interference with the hERG (hERG): significant, non-dose dependent interference

Compound: CC(=O)O[C@H]1C(=O)[C@@]2(C)[C@H]([C@H](OC(=O)c3ccccc3)[C@]3(O)C[C@H](OC(=O)[C@H](O)[C@@H](NC(=O)c4ccccc4)c4ccccc4)C(C)=C1C3(C)C)[C@]1(OC(C)=O)CO[C@@H]1C[C@@H]2O [Taxol]
- Ka [7]: 31000 M⁻¹
- DNA fragmentation and cell death in comparison to untreated (Hela): little to no cell death
- DNA fragmentation and cell death in comparison to untreated (MCF-7): little to no cell death
- Ka [8]: 19000 M⁻¹
- Solubility enhancement [1]: 2750 fold

Compound: CN(C)c1ccc(C(=C2C=CC(=[N+](C)C)C=C2)c2ccc(N(C)C)cc2)cc1 [Crystal Violet Dye, Crystal Violet]
- Ka [2]: 5.2 ± 0.8 × 10^6

Compound: CCC[S+]([O-])c1ccc2[nH]c(NC(=O)OC)nc2c1 (stereo not drawn) [ABZSO, albendazole sulfoxide]
- Absolute Bioavailability (%) ([9]; IP Route relative to IV): 43%
- AUC ([9]; IP Route, Motor1.ABZ (681 and 3.2 mg/kg)): 6150 ng·h/mL
- Cmax ([9]; IP Route, one injection of Motor1.ABZ (681 and 3.2 mg/kg), plasma): 2620 ng/mL
- tmax ([9]; IP administration, Motor1.ABZ (681 and 3.2 mg/kg)): 0.25 h
- plasma concentration ([9]; t = 5, individual mice): 298 ng/mL and 400 ng/mL and 817 ng/mL and 816 ng/mL and 600 ng/mL
- plasma concentration ([9]; t = 15 min, individual mice): 2460 ng/mL and 2160 ng/mL and 2910 ng/mL and 2934 ng/mL
- plasma concentration ([9]; t = 30 min, individual mice): 2350 ng/mL and 2650 ng/mL and 2320 ng/mL and 2480 ng/mL
- plasma concentration ([9]; t = 2 h, individual mice): 1060 ng/mL and 564 ng/mL and 463 ng/mL and 764 ng/mL and 888 ng/mL
- plasma concentration ([9]; t = 4 h, individual mice): 417 ng/mL and 361 ng/mL and 431 ng/mL and 91 ng/mL
- plasma concentration ([9]; t = 8 h, individual mice): 158 ng/mL and 131 ng/mL
- concentration at 15 min ([9]; Swiss Webster, mouse, in vivo, ip, plasma concentration, t = 15 min, individual mice): 2820 ng/mL
- concentration at 30 min ([9]; Swiss Webster, mouse, in vivo, ip, plasma concentration, t = 30 min, individual mice): 3050 ng/mL
- concentration at 8 h ([9]; Swiss Webster, mouse, in vivo, ip, plasma concentration, t = 8 h, individual mice): 183 ng/mL
- concentration at 16 h ([9]; Swiss Webster, mouse, in vivo, ip, plasma concentration, t = 16 h, individual mice): 44 ng/mL
- AUC [10, 20]: 14300 ng·h/mL
- tmax [10, 20]: 0.5 h
- Cmax ([10]; IV Route, one injection of Motor1.ABZ (681 and 3.2 mg/kg), plasma): 4340 ng/mL
- plasma concentration ([10]; t = 5 min, individual mice (duplicates a, b)): 2310 ng/mL and 2970 ng/mL and 1930 ng/mL and 1840 ng/mL and 2740 ng/mL and 2630 ng/mL and 2030 ng/mL and 2070 ng/mL and 2330 ng/mL
- plasma concentration ([10]; t = 15 min, individual mice): 3360 ng/mL and 3370 ng/mL and 3100 ng/mL and 2900 ng/mL and 3880 ng/mL and 3580 ng/mL
- plasma concentration ([10]; t = 30 min, individual mice): 4800 ng/mL and 4210 ng/mL and 4100 ng/mL and 3740 ng/mL and 4240 ng/mL
- plasma concentration ([10]; t = 2 h, individual mice): 2110 ng/mL and 1590 ng/mL and 2100 ng/mL and 2490 ng/mL and 2810 ng/mL and 2400 ng/mL
- plasma concentration ([10]; t = 4 h, individual mice): 923 ng/mL and 821 ng/mL and 777 ng/mL and 650 ng/mL
- plasma concentration ([10]; t = 8 h, individual mice): 404 ng/mL and 433 ng/mL and 510 ng/mL and 475 ng/mL
- plasma concentration ([10]; t = 16 h, individual mice): 30 ng/mL and 47 ng/mL and 52 ng/mL and 72 ng/mL and 42 ng/mL
- concentration at 5 min ([10]; Swiss Webster, mouse, in vivo, iv, plasma concentration, t = 5 min, individual mice (duplicates a, b)): 2880 ng/mL
- concentration at 15 min ([10]; Swiss Webster, mouse, in vivo, iv, plasma concentration, t = 15 min, individual mice): 3490 ng/mL
- concentration at 30 min ([10]; Swiss Webster, mouse, in vivo, iv, plasma concentration, t = 30 min, individual mice): 3960 ng/mL
- concentration at 2 h ([10]; Swiss Webster, mouse, in vivo, iv, plasma concentration, t = 2 h, individual mice): 1590 ng/mL
- concentration at 4 h ([10]; Swiss Webster, mouse, in vivo, iv, plasma concentration, t = 4 h, individual mice): 614 ng/mL
- concentration at 8 h ([10]; Swiss Webster, mouse, in vivo, iv, plasma concentration, t = 8 h, individual mice): 330 ng/mL

- revertant colonies, positive control (TA98 strain; 6 μg/plate): 361 colonies
Compound: COc1cccc2c1C(=O)c1c(O)c3c(c(O)c1C2=O)C[C@@](O)(C(C)=O)C[C@@H]3O[C@H]1C[C@H](N)[C@H](O)[C@H](C)O1 [Daunomycin]

- Absolute Bioavailability (%) [11]: 81%
- tmax ([11]; ip, 3.2 mg/kg): 2 h
- tmax [12]: 2 h
Compound: CCCS(=O)(=O)c1ccc2nc(NC(=O)OC)[nH]c2c1 [ABZSO2, albendazole sulfone]

Compound: O=C(O)CCSC[C@H]1O[C@@H]2O[C@H]3[C@H](O)[C@@H](O)[C@@H](O[C@H]4[C@H](O)[C@@H](O)[C@@H](O[C@H]5[C@H](O)[C@@H](O)[C@@H](O[C@H]6[C@H](O)[C@@H](O)[C@@H](O[C@H]7[C@H](O)[C@@H](O)[C@@H](O[C@H]8[C@H](O)[C@@H](O)[C@@H](O[C@H]9[C@H](O)[C@@H](O)[C@@H](O[C@H]1[C@H](O)[C@H]2O)O[C@@H]9CSCCC(=O)O)O[C@@H]8CSCCC(=O)O)O[C@@H]7CSCCC(=O)O)O[C@@H]6CSCCC(=O)O)O[C@@H]5CSCCC(=O)O)O[C@@H]4CSCCC(=O)O)O[C@@H]3CSCCC(=O)O [sugammadex]
- effects on QT interval [13]: no relevant effects

Compound: C[N+](C)(C)CCOC(=O)CCC(=O)OCC[N+](C)(C)C [succinyl choline]
- Ka [2]: 1.9 ± 0.1 × 10^5

Compound: O=C1N2CN3C(=O)N4CN5C(=O)N6CN7C(=O)N8CN9C(=O)N%10CN%11C(=O)N%12CN%13C(=O)N%14CN1C1C2N2CN%15C(=O)N(CN%16C(=O)N(CN%17C(=O)N(CN%18C(=O)N(CN%19C(=O)N(CN%20C(=O)N(CN1C2=O)C%14C%13%20)C%12C%11%19)C%10C9%18)C8C7%17)C6C5%16)C4C3%15 (stereo not drawn) [CB[7]]
- Solubility [14]: ≈ 20 mM

- Solubility enhancement [1]: 354 fold
Compound: C(=C\c1ccccc1)/CN1CCN(C(c2ccccc2)c2ccccc2)CC1 [Cinnarizine]

Compound: COc1ccc2nc3cc(Cl)ccc3c(NCCCNCCCl)c2c1 [ICR 191 Acridine]
- revertant colonies, positive control (TA1537 strain; −S9): 91 colonies

- Solubility enhancement [1]: 1220 fold
Compound: COC(=O)[C@H](c1ccccc1Cl)N1CCc2sccc2C1 [Clopidogrel]

Compound: CCC(=O)O[C@H]1[C@H](O[C@@H]2[C@@H](C)[C@H](O[C@H]3C[C@@](C)(OC)[C@@H](O)[C@H](C)O3)[C@@H](C)C(=O)O[C@H](CC)[C@@](C)(O)[C@H](O)[C@@H](C)C(=O)[C@H](C)C[C@@]2(C)O)O[C@H](C)C[C@@H]1N(C)C [erythromycin estolate]
- cell viability (MTS) (HepG2 [4]): 10%
- cell death (AK) (HEK293 [5]): 49%
- cell viability (MTS) (HEK293 [6]): 11%
- cell death (AK) (HepG2 [15]): 100%

Compound: Nc1ccc(N)cc1 [benzene-1,4-diamine]
- Ka [2]: 3.5 ± 0.2 × 10^5

- Solubility enhancement [3]: 37 fold
Compound: Cc1c(Cl)cccc1Nc1ccccc1C(=O)O [tolfenamic acid]

Compound: [N-]=[N+]=[N-] [sodium azide]
- revertant colonies, positive control (TA100 [16]): 167 colonies
- revertant colonies, positive control [17]: 232 colonies

Compound: Nc1ccc2cc3ccccc3cc2c1 [2-aminoanthracene]
- revertant colonies, positive control (TA1537 strain; +S9): 122 colonies
- revertant colonies, positive control [18]: 27 colonies
- revertant colonies, positive control (TA100 [19]): 1345 colonies
- revertant colonies, positive control (TA98 strain; 10 μg/plate): 1084 colonies

- Solubility enhancement [3]: 56 fold
Compound: COc1ccc2c(c1)c(CC(=O)O)c(C)n2C(=O)c1ccc(Cl)cc1 [indomethacin]
